CCc1nc(-c2cccs2)c(-c2ccnc(NC(C)=O)c2)s1 [Example Compound 30-4, N-[4-[2-ethyl-4-(2-thienyl)-1,3-thiazol-5-yl]-2-pyridyl]acetamide]
melting point: 154 to 155 °C

CSc1ccc(-c2nc(-c3cccc(Cl)c3)c(-c3ccnc(NC(C)=O)c3)s2)cc1 [Example Compound 30-5, N-[4-[4-(3-chlorophenyl)-2-[4-(methylthio)phenyl]-1,3-thiazol-5-yl]-2-pyridyl]acetamide]
melting point: 207 to 208 °C

CCC(=O)Nc1cc(-c2sc(C)nc2-c2cccc(Cl)c2)ccn1 [Example Compound 30-7, N-[4-[4-(3-chlorophenyl)-2-methyl-1,3-thiazol-5-yl]-2-pyridyl]propionamide]
melting point: 134 to 135 °C

CCC(=O)Nc1cc(-c2sc(CC)nc2-c2cccc(Cl)c2)ccn1 [Example Compound 30-8, N-[4-[4-(3-chlorophenyl)-2-ethyl-1,3-thiazol-5-yl]-2-pyridyl]propionamide]
melting point: 132 to 133 °C

CCCc1nc(-c2cccc(Cl)c2)c(-c2ccnc(NC(=O)CC)c2)s1 [Example Compound 30-9, N-[4-[4-(3-chlorophenyl)-2-propyl-1,3-thiazol-5-yl]-2-pyridyl]propionamide]
melting point: 103 to 104 °C

CCC(=O)Nc1cc(-c2sc(CC)nc2-c2cccs2)ccn1 [Example Compound 30-10, N-[4-[2-ethyl-4-(2-thienyl)-1,3-thiazol-5-yl]2-pyridyl]propionamide]
melting point: 187 to 188 °C

CCC(=O)Nc1cc(-c2sc(-c3ccc(SC)cc3)nc2-c2cccc(Cl)c2)ccn1 [Example Compound 30-11, N-[4-[4-(3-chlorophenyl)-2-[4-(methylthio)phenyl]-1,3-thiazol-5-yl]-2-pyridyl]propionamide]
melting point: 187 to 188 °C

CSc1ccc(-c2nc(-c3cccc(Cl)c3)c(-c3ccnc(NC(=O)C(C)(C)C)c3)s2)cc1 [Example Compound 30-12, N-[4-[4-(3-chlorophenyl)-2-[4-(methylthio)phenyl]-1,3-thiazol-5-yl]-2-pyridyl]pivalamide]
melting point: 119 to 120 °C

CCc1nc(-c2cccc(C)c2)c(-c2ccnc(NCC3CCCC3)c2)s1 [Example Compound 32, N-(cyclopentylmethyl)-4-[2-ethyl-4-(3-methylphenyl)-1,3-thiazol-5-yl]-2-pyridylamine]
melting point: 67 to 69 °C

Cc1cccc(-c2nc(N)sc2-c2ccnc(N3CCOCC3)c2)c1 [Example Compound 34-1, [4-(3-methylphenyl)-5-(2-morpholino-4-pyridyl)-1,3-thiazol-2-yl]amine]
melting point: 188 to 189 °C

Cc1cccc(-c2nc(N)sc2-c2ccnc(NC3CCCCC3)c2)c1 [Example Compound 34-2, [5-(2-cyclohexylamino-4-pyridyl)-4-(3-methylphenyl)-1,3-thiazol-2-yl]amine]
melting point: 168 to 169 °C

Cc1cccc(-c2nc(N)sc2-c2ccnc(NC3CCCC3)c2)c1 [Example Compound 34-3, [5-(2-cyclopentylamino-4-pyridyl)-4-(3-methylphenyl)-1,3-thiazol-2-yl]amine]
melting point: 169 to 170 °C

Nc1nc(-c2cccc(Cl)c2)c(-c2ccnc(N3CCCCC3)c2)s1 [Example Compound 35-1, [4-(3-chlorophenyl)-5-(2-piperidino-4-pyridyl)-1,3-thiazol-2-yl]amine]
melting point: 206 to 208 °C

Cc1cccc(-c2nc(-c3ccc(S(C)(=O)=O)cc3)sc2N2C=CC=CC2N2CCCCC2)c1 (stereo not shown) [Example Compound 35-2, 4-(3-methylphenyl)-2-(4-methylsulfonylphenyl)-5-(2-piperidino-1-pyridyl)-1,3-thiazole]
melting point: 155 to 157 °C

Nc1nc(-c2ccc(F)cc2)c(-c2ccnc(NC3CCCCC3)c2)s1 [Example Compound 36-1, [5-(2-cyclohexylamino-4-pyridyl)-4-(4-fluorophenyl)-1,3-thiazol-2-yl]amine]
melting point: 194 to 195 °C

CNc1nc(-c2cccc(C)c2)c(-c2ccnc(NC3CCCCC3)c2)s1 [Example Compound 36-2, N-methyl-[5-(2-cyclohexylamino-4-pyridyl)-4-(3-methylphenyl)-1,3-thiazol-2-yl]amine]
melting point: 211 to 212 °C

CNc1nc(-c2cccc(C)c2)c(-c2ccnc(NC3CCCC3)c2)s1 [Example Compound 36-3, N-methyl-[5-(2-cyclopentylamino-4-pyridyl)-4-(3-methylphenyl)-1,3-thiazol-2-yl]amine]
melting point: 170 to 172 °C

CCc1nc(-c2cccc(C)c2)c(-c2ccnc(NC3CCCCC3)c2)s1 [Example Compound 36-4, N-cyclohexyl-4-[2-ethyl-4-(3-methylphenyl)-1,3-thiazol-5-yl]-2-pyridylamine]
melting point: 110 to 112 °C

Cc1cccc(-c2nc(-c3ccc(S(C)(=O)=O)cc3)sc2-c2ccnc(NC3CCCCC3)c2)c1 [Example Compound 36-5, N-cyclohexyl-4-[4-(3-methylphenyl)-2-(4-methylsulfonylphenyl)-1,3-thiazol-5-yl]-2-pyridylamine]
melting point: 197 to 199 °C

Cc1cccc(-c2nc(-c3ccc(S(C)(=O)=O)cc3)sc2-c2ccnc(NC3CCCC3)c2)c1 [Example Compound 36-7, N-cyclopentyl-4-[4-(3-methylphenyl)-2-(4-methylsulfonylphenyl)-1,3-thiazol-5-yl]-2-pyridylamine]
melting point: 154 to 156 °C

Cc1cccc(-c2nc(-c3ccc(S(C)(=O)=O)cc3)sc2-c2ccnc(N3CCOCC3)c2)c1 [Example Compound 36-8, 4-(3-methylphenyl)-2-(4-methylsulfonylphenyl)-5-(2-morpholino-4-pyridyl)-1,3-thiazole]
melting point: 200 to 202 °C

CCc1nc(-c2cccc(C)c2)c(-c2ccnc(N3CCOCC3)c2)s1 [Example Compound 36-9, 2-ethyl-4-(3-methylphenyl)-5-(2-morpholino-4-pyridyl)-1,3-thiazole]
melting point: 69 to 71 °C

CCc1nc(-c2cccc(Cl)c2)c(-c2ccnc(NC3CCCCC3)c2)s1 [Example Compound 36-10, 4-[4-(3-chlorophenyl)-2-ethyl-1,3-thiazol-5-yl]-N-cyclohexyl-2-pyridylamine]
melting point: 106 to 107 °C

CCc1nc(-c2cccc(Cl)c2)c(-c2ccnc(NC3CCCC3)c2)s1 [Example Compound 36-11, 4-[4-(3-chlorophenyl)-2-ethyl-1,3-thiazol-5-yl]-N-cyclopentyl-2-pyridylamine]
melting point: 110 to 111 °C

Cc1cccc(-c2nc(-c3ccc(S(C)(=O)=O)cc3)sc2-c2ccnc(N(C)C3CCCCC3)c2)c1 [Example Compound 37-2, N-cyclohexyl-N-methyl-4-[4-(3-methylphenyl)-2-(4-methylsulfonylphenyl)-1,3-thiazol-5-yl]-2-pyridylamine]
melting point: 173 to 174 °C

Cc1cccc(-c2nc(-c3ccc(S(C)(=O)=O)cc3)sc2-c2ccnc(NCC3CCCCC3)c2)c1 [Example Compound 37-3, N-cyclohexylmethyl-4-[4-(3-methylphenyl)-2-(4-methylsulfonylphenyl)-1,3-thiazol-5-yl]-2-pyridylamine]
melting point: 157 to 159 °C

Cc1cccc(-c2nc(-c3ccc(S(C)(=O)=O)cc3)sc2-c2ccnc(N3CCCC3)c2)c1 [Example Compound 37-4, 4-(3-methylphenyl)-2-(4-methylsulfonylphenyl)-5-[2-(1-pyrrolidinyl)-4-pyridyl]-1,3-thiazole]
melting point: 199 to 201 °C

Cc1cccc(-c2nc(-c3ccc(S(C)(=O)=O)cc3)sc2-c2ccnc(N3CCN(C)CC3)c2)c1 [Example Compound 37-5, 4-(3-methylphenyl)-5-[2-(4-methyl-1-piperazinyl)-4-pyridyl]-2-(4-methylsulfonylphenyl)-1,3-thiazole]
melting point: 153 to 154 °C

CC(=O)Nc1nc(-c2cc(C)cc(C)c2)c(-c2ccnc(C)c2)s1 [Example Compound 40-1, N-[4-(3,5-dimethylphenyl)-5-(2-methyl-4-pyridyl)-1,3-thiazol-2-yl]acetamide]
melting point: 236 to 237 °C

CC(=O)Nc1nc(-c2cccc(C)c2)c(-c2cc(C)nc(C)c2)s1 [Example Compound 40-2, N-[5-(2,6-dimethyl-4-pyridyl)-4-(3-methylphenyl)-1,3-thiazol-2-yl]acetamide]
melting point: 185 to 187 °C

CC(=O)Nc1nc(-c2cc(C)cc(C)c2)c(-c2cc(C)nc(C)c2)s1 [Example Compound 40-3, N-[4-(3,5-dimethylphenyl)-5-(2,6-dimethyl-4-pyridyl)-1,3-thiazol-2-yl]acetamide]
melting point: 266 to 267 °C

Cc1cccc(-c2nc(NC(=O)c3cccnc3)sc2-c2ccnc(C)c2)c1 [Example Compound 41, N-[4-(3-methylphenyl)-5-(2-methyl-4-pyridyl)-1,3-thiazol-2-yl]nicotinamide]
melting point: 175 to 178 °C

Cc1cc(C)cc(-c2nc(NC(=O)c3cccnc3)sc2-c2ccnc(C)c2)c1 [Example Compound 42-1, N-[4-(3,5-dimethylphenyl)-5-(2-methyl-4-pyridyl)-1,3-thiazol-2-yl]nicotinamide]
melting point: 203 to 206 °C

Cc1cc(C)cc(-c2nc(NC(=O)c3cccnc3)sc2-c2cc(C)nc(C)c2)c1 [Example Compound 42-2, N-[4-(3,5-dimethylphenyl)-5-(2,6-dimethyl-4-pyridyl)-1,3-thiazol-2-yl]nicotinamide]
melting point: 267 to 268 °C

Cc1cccc(-c2nc(NC(=O)c3cccnc3)sc2-c2ccnc(NC3CCCCC3)c2)c1 [Example Compound 42-3, N-[5-(2-cyclohexylamino-4-pyridyl)-4-(3-methylphenyl)-1,3-thiazol-2-yl]nicotinamide]
melting point: 201 to 203 °C

Cc1cccc(-c2nc(NC(=O)c3cccnc3)sc2-c2ccnc(NC3CCCC3)c2)c1 [Example Compound 42-4, N-[5-(2-cyclopentylamino-4-pyridyl)-4-(3-methylphenyl)-1,3-thiazol-2-yl]nicotinamide]
melting point: 215 to 216 °C

O=C(Nc1nc(-c2ccc(F)cc2)c(-c2ccnc(NC3CCCCC3)c2)s1)c1cccnc1 [Example Compound 42-5, N-[5-(2-cyclohexylamino-4-pyridyl)-4-(4-fluorophenyl)-1,3-thiazol-2-yl]nicotinamide]
melting point: 136 to 138 °C

Source: patent publication US7495018B2, “Substituted 1,3-thiazole compounds, their production and use” (Takeda Pharmaceutical Company Limited, priority 2000, dated 2009)
